Like-named read-outs stand apart in the source and are kept apart here.
What was measured:
Plasmodium falciparum = experiment: In vitro antimalarial activity, (3H) hypoxanthine incorporation in infected human erythrocytes (Desjardins test); format: cell-based; conditions: read-out: IC50 exprimée en micromoles
Excerpt: L'activité antipaludéenne des dérivés selon les exemples précédents est testée sur l'humain infesté par Plasmodium falciparum. Le produit à tester est mis en contact avec les érythrocytes humains infectés pendant 24 heures. Un précurseur radioactif d'acides nucléiques l'Hypoxanthine (^3H) est ensuite ajouté. Le précurseur ne s'incorpore que dans les cellules infectées par un parasite en croissance, c'est à dire dans les cellules que la drogue n'aura pas affectées.
L'aptitude ou non à incorporer le précurseur reflète donc la viabilité des cellules impaludées. La durée des tests est de 60 à 70 heures ( test de DESJARDINS R.E. , CANFIELD C.J., HATNES J.D. et CHULAY J.D., Antimicrob. Agents Chemother. 1979, 16, p 710-718 ). Les résultats sont consignés dans le tableau I ci-après, sous forme de IC50 (ou DE50), soit la concentration de produit dans le milieu expérimental capable d'inhiber in vitro la croissance du parasite d'une valeur de 50%.

[1] = test system: Babesia Bovis, Babesia Canis; experiment: In vitro anti-Babesia activity, (3H) hypoxanthine incorporation; format: cell-based; conditions: read-out: Activité/ Babesia à 10 millimole
Excerpt: Le procédé de criblage d'activité anti-malaria, basé sur l'incorporation de l'(^3H) Hypoxanthine par le parasite, est utilisé pour tester l'activité anti-métabolique de tels composés sur Babesia Bovis, Babesia Canis. Une relation étroite est trouvée entre le taux d'incorporation de (^3H) Hypoxanthine dans une mesure standard et le pourcentage de cellules parasitées, déterminé par examen microscopique. Cette activité métabolique est quantifiée et évaluée dans le tableau ci-dessous par la cotation +++ pour les molécules affichant dans le test une inhibition de 50 % de l'incorporation de (^3H) Hypoxanthine (ID 50), ces molécules étant à une concentration inférieure ou égale à 0,01 Micromolaire. La cotation est de ++ pour la même activité à une concentration de 0,01 à 0.1 micromolaire et enfin de + pour une concentration inférieure ou égale à 1 Micromolaire.

[2] = test system: Plasmodium vinckei, petteri, ou chabaudi; experiment: Therapeutic index in infected mice: 4-day Peters test activity versus semi-chronic toxicity (DL 50); format: in vivo, souris Swiss mâles; conditions: ratio of activity to toxicity under identical conditions, intraperitoneal or subcutaneous, twice a day for 4 days
Excerpt: Afin d'évaluer l'index thérapeutique des divers produits, on a mesuré l'activité de ceux-ci dans un test in vivo et comparé à la toxicité aiguë chez l'animal . Cette activité est mesurée suivant le test décrit par PETERS W. ( Chemotherapy and Drug résistance in Malaria, 1970). Un composé est administré pendant quatre jours consécutifs à des souris préalablement impaludées par Plasmodium vinckei, petteri, ou chabaudi, ledit composé étant dissous dans une solution de NaCI à 0.9 %. Les préparations sont ainsi administrées par voie intrapéritonéale ou par voie sous-cutanée à des souris Swiss mâles infectées par voie IV, avec Plasmodium petterei ou Plasmodium chabaudi (10^6 cellules infectées ). Le composé est administré deux fois par jour pendant 4 jours consécutifs, la première injection étant pratiquée 2 heures après l'infestation et la deuxième, 10 heures après. La parasitémie est déterminée par un frottis, le jour suivant la fin du traitement. La toxicité est mesurée in vivo selon la même méthode, les animaux ayant reçu dans les conditions d'administration ci-dessus, 2 injections par jour pendant 4 jours ( toxicité semi chronique). Les résultats sont exprimés sous forme de DL 50, soit la dose ayant entraîné la mort de 50% des animaux.
Les résultats des essais sont résumés dans le tableau I ci-après sous forme d'index thérapeutique, soit le rapport de l'activité à la toxicité mésurées dans des conditions identiques comme décrit ci-dessus.

[3] = Plasmodium falciparum, Erythrocyte, concentration inhibiting in vitro parasite growth by 50 %, human erythrocytes infected with Plasmodium falciparum, 24 h contact, test lasts 60 to 70 h
[4] = class of ID 50 for (3H) hypoxanthine incorporation
[5] = concentration inhibiting in vitro parasite growth by 50 %, human erythrocytes infected with Plasmodium falciparum, 24 h contact, test lasts 60 to 70 h
[6] = Plasmodium falciparum, Erythrocyte

CCC[N+](C)(CC)CCCCCCCCCCCCCC[N+](C)(CC)CCC (stereo not drawn) [EXEMPLE1, N, N'-dimethyl-N, N'-diethyl-N, N'-dipropyl-1, 14 tetradecanediaminium, dibromure]
IC50 (Plasmodium falciparum; [3]): 10 nM
IC50 [1, 4]: 10 to 100 nM

CCC[N+](C)(CC)CCCCCCCCCCCCCCC[N+](C)(CC)CCC (stereo not drawn) [EXEMPLE 2, N,N'-dimethyl-N, N'-diethyl-N, N'-dipropyl-1, 15-pentadecanediaminium, dibromure]
IC50 (Plasmodium falciparum; [3]): 10 nM
IC50 [1, 4]: 100 to 1000 nM

CCC[N+](C)(CC)CCCCCCCCCCCCCCCC[N+](C)(CC)CCC (stereo not drawn) [EXEMPLE 3, N.N'-dimethyl-N.N'-diethyl-N, N'-dipropyl-1,16-exadecanediaminium, dibromure]
IC50 (Plasmodium falciparum; [3]): 3 nM
IC50 [1, 4]: 10 to 100 nM

CCC[N+](C)(CC)CCCCCCCCCCCCCCCCC[N+](C)(CC)CCC (stereo not drawn) [EXEMPLE 4, N,N'-dimethyl-N, N'-diethyl-N, N'-dipropyl-1, 17-heptadecanediaminium, dibromure]
IC50 (Plasmodium falciparum; [3]): 2 nM
IC50 [1, 4]: 10 to 100 nM

CCC[N+](C)(CC)CCCCCCCCCCCCCCCCCC[N+](C)(CC)CCC (stereo not drawn) [EXEMPLE 5, N,N'-dimethyl-N,N'-diethyl-N,N'-dipropyl-1,18-octadecanediaminium, dibromure]
IC50 (Plasmodium falciparum; [3]): 1 nM
IC50 [1, 4]: < 10 nM

CCC[N+](C)(CC)CCCCCCCCCCCCCCCCCCCC[N+](C)(CC)CCC (stereo not drawn) [EXEMPLE 6, N, N'-dimethyl-N, N'-diethyl-N, N'-dipropyl-1,20-eicosanediaminium, dibromure]
IC50 (Plasmodium falciparum; [3]): 3 nM
IC50 [1, 4]: 10 to 100 nM

CCC[N+](C)(CC)CCCCCCCCCCCCCCCCCCCCCC[N+](C)(CC)CCC (stereo not drawn) [EXEMPLE 7, N,N'-dimethyl-N, N'-diethyl-N, N'-dipropyl-1,22-Cosanediaminium, dibromure]
IC50 (Plasmodium falciparum; [3]): 10 nM
IC50 [1, 4]: 10 to 100 nM

CCC[N+](CCC)(CCC)CCCCCCCCCCCCCC[N+](CCC)(CCC)CCC [EXEMPLE 8, N, N, N, N', N', N' hexapropyl-1, 14-tetradecanediaminium, dibromure]
IC50 (Plasmodium falciparum; [3]): 100 nM
IC50 [1, 4]: 100 to 1000 nM

CCC[N+](CCC)(CCC)CCCCCCCCCCCCCCCC[N+](CCC)(CCC)CCC [EXEMPLE 9, N, N, N, N', N', N' hexapropyl-1, 16-hexadecanediaminium, dibromure]
IC50 (Plasmodium falciparum; [5]): 7 nM
IC50 [1, 4]: < 10 nM

CCC[N+](CCC)(CCC)CCCCCCCCCCCCCCCCCCCC[N+](CCC)(CCC)CCC [EXEMPLE 10, N, N, N, N', N', N' hexapropyl-1,20-eicosanediaminium, dibromure]
IC50 (Plasmodium falciparum; [3]): 700 nM
IC50 [1, 4]: 100 to 1000 nM

CCC[N+](CCC)(CCC)CCCCCCCCCCCCCCCCCCCCCCCC[N+](CCC)(CCC)CCC [EXEMPLE 11, N, N, N, N', N', N' hexapropyl-1,24-tetracosanediaminium, dibromure]
IC50 (Plasmodium falciparum; [3]): 1600 nM
IC50 [1, 4]: 100 to 1000 nM

CCC[N+](CCC)(CCC)CCCCCCCCCCCCCCCC[N+](CCC)(CCC)CCC [EXEMPLE 12, N, N, N, N', N', N' hexapropyl-1,16-hexadecanediaminium, dibromure]
IC50 (Plasmodium falciparum; [5]): 1 nM
IC50 [1, 4]: 10 to 100 nM

CC[N+](C)(CC)CCCCCCCCCCCCCCCC[N+](C)(CC)CC [EXEMPLE 13, N,N'-dimethyl-N,N,N',N'-tetraethyl-1,16-hexadecanediaminium, dibromure]
IC50 (Plasmodium falciparum; [3]): 0.5 nM
IC50 [1, 4]: < 10 nM

CC[N+](C)(CC)CCCCCCCCCCCCCCCCCC[N+](C)(CC)CC [EXEMPLE 14, N,N'-dimethyl-N,N,N',N'-tetraethyl-1,18 octadecanediaminium, dibromure]
Index thérapeutique [2]: 14
IC50 (Plasmodium falciparum; [6]): 0.04 nM
IC50 [1]: < 10 nM

CC[N+](C)(CC)CCCCCCCCCCCCCCCCCCCCC[N+](C)(CC)CC [EXEMPLE 15, N,N'-dimethyl-N,N,N',N'-tetraethyl-1,21-heneicosanediaminium, dibromure]
IC50 (Plasmodium falciparum; [3]): 0.003 nM
IC50 [1, 4]: < 10 nM

C[N+]1(CCCCCCCCCCCCCC[N+]2(C)CCCC2)CCCC1 [EXEMPLE 16, 1,1'-(1,14-tetradecanediyl) bis (1-methylpyrrolidinium) dibromure]
Index thérapeutique [2]: 8
IC50 (Plasmodium falciparum; [6]): 0.9 nM
IC50 [1]: < 10 nM

C[N+]1(CCCCCCCCCCCCCCCC[N+]2(C)CCCC2)CCCC1 [EXEMPLE 17, 1,1-(1,16-hexadecanediyl) bis (1-methylpyrrolidinium) dibromure]
IC50 (Plasmodium falciparum; Erythrocyte, concentration inhibiting in vitro parasite growth by 50 %, human erythrocytes infected with Plasmodium falciparum, 24 h contact, test lasts 60 to 70 h): 0.6 nM
IC50 [1, 4]: < 10 nM

C[N+]1(CCCCCCCCCCCCCCCCCCCCCC[N+]2(C)CCCC2CO)CCCC1CO (stereo not drawn) [EXEMPLE 19, 1,1'-(1,22-docosanediyl) bis (2-hydroxymethyl1-methylpyrrolidinium) dibromure]
IC50 (Plasmodium falciparum; [3]): 70 nM
IC50 [1, 4]: 100 to 1000 nM

C[N+]1(CCCCCCCCCCCCCCCC[N+]2(C)CCOCC2)CCOCC1 [EXEMPLE 21, 1,1'-(1.16-hexadecanediyl) bis (1-methylmorpholinium) dibromure]
IC50 (Plasmodium falciparum; [3]): 1 nM
IC50 [1, 4]: < 10 nM

CCCCCCCCCCCC[N+](C)(C)CCCCCCCCCCCCCCCC[N+](C)(C)CCCCCCCCCCCC [EXEMPLE 22, N,N'-didodecyl-N,N,N',N'-tetramethyl- 1,16 hexadecanediaminium dibromure]
IC50 (Plasmodium falciparum; [3]): 1000 nM
IC50 [1, 4]: 10 to 100 nM

CCCCCCCCCCCC[N+](C)(C)CCCCCCCCCCCCCCCCCC[N+](C)(C)CCCCCCCCCCCC [EXEMPLE 23]
IC50 (Plasmodium falciparum; [3]): 100 nM
IC50 [1, 4]: 100 to 1000 nM

C#CC[N+](C)(C)CCCCCCCCCCCCCC[N+](C)(C)CC#C [EXEMPLE 24, N,N'-di (2-propynyl)-N,N,N',N'-tetramethyl-1,14-tetradecane diaminium dibromure]
IC50 (Plasmodium falciparum; [3]): 7 nM
IC50 [1, 4]: 10 to 100 nM

C=CC[N+](C)(C)CCCCCCCCCCCCCC[N+](C)(C)CC=C [EXEMPLE 25, N,N'-di (2-propenyl)-N,N,N',N'-tetramethyl-1,14 tetradecane diaminium dibromure]
Index thérapeutique [2]: 15
IC50 (Plasmodium falciparum; [6]): 5 nM
IC50 [1]: < 10 nM

C#CCC[N+](C)(C)CCCCCCCCCCCCCC[N+](C)(C)CCC#C [EXEMPLE 26, N,N'-di (3-butynyl)-N, N, N', N'-tetramethyl 1,14-tetradecanediaminium dibromure]
Index thérapeutique [2]: 45
IC50 (Plasmodium falciparum; [6]): 40 nM
IC50 [1]: 10 to 100 nM

CCC[N+](CCC)(CCO)CCCCCCCCCCCCCC[N+](CCC)(CCC)CCO [EXEMPLE 27, N, N'-di-(2-hydroxyethyl) -N, N, N', N'-tetrapropyl-1, 14 tetradecane diaminium dibromure]
IC50 (Plasmodium falciparum; [3]): 10 nM
IC50 [1, 4]: 10 to 100 nM

CCC[N+](CCC)(CCCCCCCCCCCCCC[N+](CCC)(CCC)CCOCC)CCOCC [EXEMPLE 28, N, N'-di-(2-ethoxyethyl)-N, N, N', N'-tetrapropyl-1, 14 tetradecanediaminium dibromure]
IC50 (Plasmodium falciparum; [3]): 10 nM
IC50 [1, 4]: < 10 nM

CCC[N+](CCC)(CCO)CCCCCCCCCCCCCCCC[N+](CCC)(CCC)CCO [EXEMPLE 29, N, N'-di-(2-hydroxyethyl) -N, N, N', N'-tetrapropyl-1, 1 6 hexadecane diaminium dibromure]
IC50 (Plasmodium falciparum; [3]): 5 nM
IC50 [1, 4]: 10 to 100 nM

CCC[N+](CCC)(CCO)CCCCCCCCCCCCCCCCCCCC[N+](CCC)(CCC)CCO [EXEMPLE 30, N, N'-di-(2-hydroxyethyl)-N, N, N', N'-tetrapropyl-1,20-eicosanediaminium dibromure]
IC50 (Plasmodium falciparum; [3]): 0.3 nM
IC50 [1, 4]: < 10 nM
